Earlier results in patent publication US20050181044A1, “Compositions and methods for timed release of water-soluble nutritional supplements, green coffee extract” (priority 2004, published 2005).

Conditions: absorbed by the gastrointestinal tract, after first-pass metabolism in the liver

bioavailability: 26%
Structure (SMILES): N[C@H]1C(O)O[C@H](CO)[C@@H](O)[C@@H]1O (stereo partly shown) [Glucosamine]
